Data as given in US6124269A, “2-Halo-6-O-substituted ketolide derivatives” (priority 1998, dated 2000).
In brackets after ≈: the same amount, converted by molar mass.

What was measured:
Type in all cases: cell-based
[1] = test system: Streptococcus pneumoniae 5979; assay: In vitro agar dilution MIC, organism code ZZ; conditions: unit assumed
Method: (§1) Representative compounds of the present invention were assayed in vitro for antibacterial activity as follows: Twelve petri dishes containing successive aqueous dilutions of the test compound mixed with 10 mL of sterilized Brain Heart Infusion (BHI) agar (Difco 0418-01-5) were prepared. Each plate was inoculated with 1:100 (or 1:10 for slow-growing strains, such as Micrococcus and Streptococcus) dilutions of up to 32 different microorganisms, using a Steers replicator block. The inoculated plates were incubated at 35-37° C. for 20 to 24 hours. In addition, a control plate, using BHI agar containing no test compound, was prepared and incubated at the beginning and end of each test.
(§2) An additional plate containing a compound having known susceptibility patterns for the organisms being tested and belonging to the same antibiotic class as the test compound was also prepared and incubated as a further control, as well as to provide test-to-test comparability.
(§3) After incubation, each plate was visually inspected. The minimum inhibitory concentration (MIC) was defined as the lowest concentration of drug yielding no growth, a slight haze, or sparsely isolated colonies on the inoculum spot as compared to the growth control.

[2] = test system: Micrococcus luteus ATCC 9341; assay: In vitro agar dilution MIC, organism code OO; conditions: Table 1B, unit assumed
Method: as §1, §2, §3

[3] = test system: Staphylococcus aureus A-5278; assay: In vitro agar dilution MIC, organism code CC; conditions: unit assumed
Method: as §1, §2, §3

[4] = test system: Streptococcus agalactiae CMX 508; assay: In vitro agar dilution MIC, organism code KK; conditions: Table 1B, unit assumed
Method: as §1, §2, §3

[5] = test system: Streptococcus pneumoniae 5649; assay: In vitro agar dilution MIC, organism code ZZA; conditions: unit assumed
Method: as §1, §2, §3

[6] = test system: Micrococcus luteus ATCC 4698; assay: In vitro agar dilution MIC, organism code PP; conditions: Table 1B, in µg/mL (unit assumed)
Method: as §1, §2, §3

[7] = test system: Staphylococcus aureus A5177; assay: In vitro agar dilution MIC, organism code BB; conditions: in µg/mL (unit assumed)
Method: as §1, §2, §3

[8] = test system: Streptococcus pyogenes EES61; assay: In vitro agar dilution MIC, organism code LL; conditions: unit assumed
Method: as §1, §2, §3

[9] = test system: Enterococcus faecium ATCC 8043; assay: In vitro agar dilution MIC, organism code II; conditions: Table 1B, unit assumed
Method: as §1, §2, §3

[10] = test system: Streptococcus pneumoniae ATCC 6303; assay: In vitro agar dilution MIC, organism code XX; conditions: unit assumed
Method: as §1, §2, §3

[11] = test system: Staphylococcus epidermidis 3519; assay: In vitro agar dilution MIC, organism code HH; conditions: Table 1B, in µg/mL (unit assumed)
Method: as §1, §2, §3

[12] = test system: Streptococcus pneumoniae GYR 1171; assay: In vitro agar dilution MIC, organism code YY; conditions: Table 1B, unit assumed
Method: as §1, §2, §3

Candida albicans CCH 442 = assay: In vitro agar dilution MIC, organism code TT; conditions: Table 1B, unit assumed
Method: as §1, §2, §3

[13] = test system: Streptococcus bovis A-5169; assay: In vitro agar dilution MIC, organism code JJ; conditions: Table 1B, unit assumed
Method: as §1, §2, §3

[14] = test system: Streptococcus pyogenes PIU 2548; assay: In vitro agar dilution MIC, organism code NN; conditions: unit assumed
Method: as §1, §2, §3

[15] = test system: Nocardia asteroides ATCC 9970; assay: In vitro agar dilution MIC, organism code VV; conditions: Table 1B, in µg/mL (unit assumed)
Method: as §1
An additional plate containing a compound having known susceptibility patterns for the organisms being tested and belonging to the same antibiotic class as the test compound was also prepared and incubated as a further control, as well as to provide test-to-test comparability. Erythromycin A was used for this purpose.
as §3

Escherichia coli JUHL = assay: In vitro agar dilution MIC, organism code QQ; conditions: Table 1B, in µg/mL (unit assumed)
Method: as §1, §2, §3

[16] = test system: Haemophilis influenzae DILL AMP R; assay: In vitro agar dilution MIC, organism code WW; conditions: unit assumed
Method: as §1, §2, §3

[17] = test system: Staphylococcus aureus 1775; assay: In vitro agar dilution MIC, organism code GG; conditions: Table 1B, unit assumed
Method: as §1, §2, §3

[18] = test system: Streptococcus pyogenes 930; assay: In vitro agar dilution MIC, organism code MM; conditions: unit assumed
Method: as §1, §2, §3

[19] = test system: Staphylococcus aureus CMX 553; assay: In vitro agar dilution MIC, organism code FF; conditions: Table 1B, unit assumed
Method: as §1, §2, §3

[20] = test system: Staphylococcus aureus NCTC10649M; assay: In vitro agar dilution MIC, organism code EE; conditions: Table 1B, unit assumed
Method: as §1, §2, §3

Escherichia coli SS = assay: In vitro agar dilution MIC, organism code RR; conditions: Table 1B, in µg/mL (unit assumed)
Method: as §1, §2, §3

Escherichia coli DC-2 = assay: In vitro agar dilution MIC, organism code SS; conditions: Table 1B, unit assumed
Method: as §1, §2, §3

[21] = test system: Mycobacterium smegmatis ATCC 114; assay: In vitro agar dilution MIC, organism code UU; conditions: Table 1B, in µg/mL (unit assumed)
Method: as §1, §2, §3

[22] = test system: Staphylococcus aureus ATCC 6538P; assay: In vitro agar dilution MIC, organism code AA; conditions: unit assumed
Method: as §1, §2, §3

[23] = test system: Staphylococcus aureus CMX 642A; assay: In vitro agar dilution MIC, organism code DD; conditions: Table 1B, unit assumed
Method: as §1, §2, §3

Compound	MIC ([1]; Table 1C) [µg/mL]	MIC [2] [µg/mL]	MIC ([3]; Table 1B) [µg/mL]	MIC ([3]; Table 1C) [µg/mL]	MIC [4] [µg/mL]	MIC ([5]; Table 1B) [µg/mL]	MIC ([5]; Table 1C) [µg/mL]	MIC [6]	MIC ([7]; Table 1B)	MIC ([7]; Table 1C)	MIC ([8]; Table 1B) [µg/mL]	MIC ([8]; Table 1C) [µg/mL]	MIC [9] [µg/mL]	MIC ([10]; Table 1C) [µg/mL]	MIC [11]	MIC [12] [µg/mL]	MIC (Candida albicans CCH 442) [µg/mL]	MIC [13] [µg/mL]	MIC ([14]; Table 1B) [µg/mL]	MIC [15]	other results
CC[C@H]1OC(=O)C(C)(Cl)C(=O)[C@H](C)[C@@H](O[C@@H]2O[C@H](C)C[C@H](N(C)C)[C@H]2O)[C@](C)(OC)C[C@@H](C)C2=NCCN3C(=O)O[C@@]1(C)[C@H]3[C@H]2C (some centres unmarked) [Example 2]	> 128	3.1 (≈ 4.61 µM)	> 100	> 100	3.1 (≈ 4.61 µM)	4 (≈ 5.95 µM)	4 (≈ 5.95 µM)	6.2	25	25	3.1 (≈ 4.61 µM)	4 (≈ 5.95 µM)	12.5 (≈ 18.6 µM)	4 (≈ 5.95 µM)	25	4 (≈ 5.95 µM)	> 100	1.56 (≈ 2.32 µM)	6.2 (≈ 9.22 µM)	50	MIC ([1]; Table 1B): > 128 µg/mL; MIC ([10]; Table 1B): 4 µg/mL (≈ 5.95 µM); MIC ([14]; Table 1C): 16 µg/mL (≈ 23.8 µM); MIC (Escherichia coli JUHL): > 100; MIC ([16]; Table 1B): 32 µg/mL (≈ 47.6 µM); MIC ([16]; Table 1C): 32 µg/mL (≈ 47.6 µM); MIC [17]: > 100 µg/mL; MIC ([18]; Table 1B): > 100 µg/mL; MIC ([18]; Table 1C): 128 µg/mL (≈ 190 µM); MIC [19]: 25 µg/mL (≈ 37.2 µM); MIC [20]: 25 µg/mL (≈ 37.2 µM); MIC (Escherichia coli SS): 0.78; MIC (Escherichia coli DC-2): > 100 µg/mL; MIC [21]: > 100; MIC ([22]; Table 1B): 25 µg/mL (≈ 37.2 µM); MIC ([22]; Table 1C): 25 µg/mL (≈ 37.2 µM); MIC [23]: 50 µg/mL (≈ 74.4 µM)
CC[C@H]1OC(=O)C(C)(Br)C(=O)[C@H](C)[C@@H](O[C@@H]2O[C@H](C)C[C@H](N(C)C)[C@H]2O)[C@](C)(OC)C[C@@H](C)C2=NCCN3C(=O)O[C@@]1(C)[C@H]3[C@H]2C (some centres unmarked) [Example 3]	> 128	0.05 (≈ 0.0698 µM)	> 100	> 100	0.2 (≈ 0.279 µM)	2 (≈ 2.79 µM)	1 (≈ 1.4 µM)	0.39	0.39	0.78	0.05 (≈ 0.0698 µM)	< 0.125	0.1 (≈ 0.14 µM)	0.25 (≈ 0.349 µM)	0.39	0.125 (≈ 0.174 µM)	> 100	0.2 (≈ 0.279 µM)	0.39 (≈ 0.544 µM)	0.39	MIC (Escherichia coli JUHL): > 100; MIC ([16]; Table 1B): 8 µg/mL (≈ 11.2 µM); MIC ([16]; Table 1C): 8 µg/mL (≈ 11.2 µM); MIC [17]: > 100 µg/mL; MIC ([18]; Table 1B): > 100 µg/mL; MIC ([18]; Table 1C): 128 µg/mL (≈ 179 µM); MIC [19]: 0.39 µg/mL (≈ 0.544 µM); MIC [20]: 0.39 µg/mL (≈ 0.544 µM); MIC (Escherichia coli SS): 0.39; MIC (Escherichia coli DC-2): > 100 µg/mL; MIC [21]: 1.56; MIC ([22]; Table 1B): 0.39 µg/mL (≈ 0.544 µM); MIC ([22]; Table 1C): 0.78 µg/mL (≈ 1.09 µM); MIC [23]: 0.39 µg/mL (≈ 0.544 µM)
